Measurements as given in ChEMBL document CHEMBL4049439, “Synthesis and Characterization of Tetrahydropyran-Based Bacterial Topoisomerase Inhibitors with Antibacterial Activity against Gram-Negative Bacteria” (J Med Chem, 2017).
Converted amounts (≈) assume the structure as drawn. The source made the active and inactive calls. The rule behind the calls is not given here.

What was measured:
[1] = (§1) Inhibition of wild-type Acinetobacter baumannii DNA topoisomerase-4 mediated supercoiled pBR322 DNA relaxation by ethidium bromide based agarose gel electrophoresis
[2] = Inhibition of wild-type Escherichia coli DNA topoisomerase-4 mediated supercoiled pBR322 DNA relaxation by ethidium bromide based agarose gel electrophoresis
[3] = test system: Staphylococcus aureus; test: Antibacterial activity against Staphylococcus aureus ATCC 29213 by CLSI broth microdilution method; format: functional
[4] = test system: Escherichia coli; test: Antibacterial activity against wild-type Escherichia coli ATCC 25922 by CLSI broth microdilution method; format: functional
[5] = test system: Acinetobacter baumannii; test: Antibacterial activity against fluoroquinolone-resistant Acinetobacter baumannii T6474 by CLSI broth microdilution method; format: functional
[6] = test system: Pseudomonas aeruginosa; test: Antibacterial activity against Pseudomonas aeruginosa ATCC 27853 by CLSI broth microdilution method; format: functional
[7] = Inhibition of wild-type Escherichia coli DNA gyrase supercoiling activity using relaxed pBR322 DNA as substrate by ethidium bromide based agarose gel electrophoresis
[8] = (§2) Inhibition of wild-type Acinetobacter baumannii DNA gyrase supercoiling activity using relaxed pBR322 DNA as substrate by ethidium bromide based agarose gel electrophoresis
[9] = (§3) Inhibition of wild-type Pseudomonas aeruginosa DNA gyrase supercoiling activity using relaxed pBR322 DNA as substrate by ethidium bromide based agarose gel electrophoresis
[10] = (§4) Inhibition of wild-type Pseudomonas aeruginosa DNA topoisomerase-4 mediated supercoiled pBR322 DNA relaxation by ethidium bromide based agarose gel electrophoresis
[11] = test system: Acinetobacter baumannii; test: as §1
[12] = test system: Acinetobacter baumannii; test: as §2
[13] = test system: Pseudomonas aeruginosa; test: as §3
[14] = test system: Pseudomonas aeruginosa; test: as §4
[15] = Lipophilicity, log D of the compound at pH 7.4; format: physicochemical; conditions: buffer

Structure (SMILES)	IC50 [1] [nM]	IC50 [2] [nM]	MIC [3] [µg/mL]	MIC [4] [µg/mL]	MIC [5] [µg/mL]	MIC [6] [µg/mL]	IC50 [7] [nM]	IC50 [8] [nM]	IC50 [9] [nM]	IC50 [10] [nM]	inhibition [11]	inhibition [12]	inhibition [13]	inhibition [14]	logD [15]
COc1ccc2ccc(=O)n(C[C@H](O)[C@@H]3CC[C@@H](NCc4cc5c(nn4)OCCO5)CO3)c2n1	8000	2000	0.06 (≈ 0.128 µM)	> 8	> 8	> 8	32000	8000	8000	500					
COc1ccc2nccc([C@@H](N)C[C@@H]3CC[C@@H](NCc4ccc5c(n4)NC(=O)CO5)CO3)c2n1											inactive	inactive	inactive	inactive	
COc1ccc2ncc(=O)n(C[C@H](N)[C@@H]3CC[C@@H](NCc4ccc5c(n4)NC(=O)CO5)CO3)c2n1	125	125	0.125 (≈ 0.26 µM)	0.5 (≈ 1.04 µM)	2 (≈ 4.15 µM)	2 (≈ 4.15 µM)	500	125	125	30					
COc1ccc2ccc(=O)n(C[C@H](N)[C@@H]3CC[C@@H](NCc4ccc5c(n4)NC(=O)CO5)CO3)c2c1	125	30	0.25 (≈ 0.521 µM)	0.25 (≈ 0.521 µM)	2 (≈ 4.17 µM)	4 (≈ 8.34 µM)	125	125	125	500					
COc1ccc2ncc(=O)n(C[C@H](N)[C@@H]3CC[C@@H](NCc4ccc5c(n4)NC(=O)CO5)CO3)c2c1	125	30	0.063 (≈ 0.131 µM)	0.25 (≈ 0.52 µM)	2 (≈ 4.16 µM)	4 (≈ 8.32 µM)	500	30	30	30					
COc1ccc2ccc(=O)n(C[C@H](O)[C@@H]3CC[C@@H](NCc4cc5c(cn4)OCCO5)CO3)c2n1	125	125	≤ 0.03	4 (≈ 8.54 µM)	0.5 (≈ 1.07 µM)	> 8	8000	125	125	125					
COc1ccc2nccc(C(N)C[C@@H]3CC[C@@H](NCc4ccc5c(n4)NC(=O)CO5)CO3)c2n1 (mixture of isomers)	125	125	2	1	8	8	8000	2000	500	125					
COc1ccc2ccc(=O)n(C[C@H](O)[C@@H]3CC[C@@H](NCc4cc5c(cn4)OCCS5)CO3)c2n1	30	30	≤ 0.03	4 (≈ 8.25 µM)	0.5 (≈ 1.03 µM)	> 8	500	125	500	≤ 10					
COc1ccc2ncc(F)c(C[C@H](O)[C@@H]3CC[C@@H](NCc4cc5c(nn4)OCCS5)CO3)c2n1	125				2 (≈ 4.1 µM)			2000	500	125					
COc1ccc2nccc([C@H](N)C[C@@H]3CC[C@@H](NCc4ccc5c(n4)NC(=O)CO5)CO3)c2n1											inactive	inactive	inactive	inactive	
COc1ccc2ncc(F)c(C[C@H](O)C34CCC(NCc5ccc6c(n5)NC(=O)CO6)(CC3)CO4)c2n1															2
COc1ccc2ccc(=O)n(C[C@H](O)[C@@H]3CC[C@@H](NCc4cc5c(nn4)OCCS5)CO3)c2n1	500	125	0.031 (≈ 0.0638 µM)	> 8	8 (≈ 16.5 µM)	> 8	8000	2000	500	125					
O=C(O)c1cn(C2CC2)c2cc(N3CCNCC3)c(F)cc2c1=O [CIPROFLOXACIN]	32000							2000	500	8000					
COc1cnc2ccc(=O)n(C[C@H](N)[C@@H]3CC[C@@H](NCc4ccc5c(n4)NC(=O)CO5)CO3)c2c1	125	30	1 (≈ 2.08 µM)	1 (≈ 2.08 µM)	4 (≈ 8.32 µM)	4 (≈ 8.32 µM)	500	30	30	30					
COc1cnc2ccc(=O)n(C[C@H](N)[C@@H]3CC[C@@H](NCc4ccc5c(n4)NC(=O)CO5)CO3)c2n1	30	30	0.5 (≈ 1.04 µM)	0.5 (≈ 1.04 µM)	2 (≈ 4.15 µM)	1 (≈ 2.08 µM)	500	125	125	30					
COc1ccc2nccc(C[C@H](N)[C@@H]3CC[C@@H](NCc4ccc5c(n4)NC(=O)CO5)CO3)c2n1	30	30	0.06 (≈ 0.129 µM)	0.125 (≈ 0.269 µM)	0.25 (≈ 0.538 µM)	0.5 (≈ 1.08 µM)	125	125	125	30					
COc1ccc2ncc(F)c(C[C@@H](N)[C@@H]3CC[C@@H](NCc4ccc5c(n4)NC(=O)CO5)CO3)c2n1	125	125	1 (≈ 2.07 µM)	1 (≈ 2.07 µM)	1 (≈ 2.07 µM)	> 8	500	500	125	125					
COc1ccc2ccc(F)c(C[C@H](N)[C@@H]3CC[C@@H](NCc4ccc5c(n4)NC(=O)CO5)CO3)c2n1	30	≤ 10	0.03 (≈ 0.0623 µM)	≤ 0.03	≤ 0.03	1 (≈ 2.08 µM)	30	30	30	30					
COc1ccc2nccc(CC(N)[C@@H]3CC[C@@H](NCc4ccc5c(n4)NC(=O)CO5)CO3)c2n1 (mixture of isomers)	500	500	0.125	0.125	0.5	2	500	500	500	500					
